Laboratory results from patent publication US20230338362A1 (priority 2020, published 2023).
Like-named read-outs stand apart in the source and are kept apart here.

Legend:
SARS-CoV-2 = SARS-CoV-2 inhibition, cell viability assay (CellTiter-Glo) in VERO-E6 cells enriched for ACE-2; format: cell-based
SARS-CoV = format: cell-based
MERS-CoV = format: cell-based
common cold coronavirus = test: In vitro activity against common cold coronaviruses, methods analogous to Example 1; format: cell-based
Influenza A = test: In vitro activity against Influenza A, methods analogous to Example 1; format: cell-based
Influenza B = test: In vitro activity against Influenza B, methods analogous to Example 1; format: cell-based
[1] = system: macrophages treated with SARS-CoV-2 Spike protein; format: cell-based, human; note: test concentration or dose not given here
[2] = system: macrophages treated with SARS-CoV-2 Spike protein; format: cell-based, human; remark: listed apart in the source; note: test concentration or dose not given here
[3] = Severe acute respiratory syndrome coronavirus 2, Vero C1008; Table II, antiviral compounds; VERO-E6 cells enriched for ACE-2 plus SARS-CoV-2; read-out: IC50
[4] = Severe acute respiratory syndrome coronavirus 2, Vero C1008; read-out: IC50 in an in vitro inhibition assay against SARS-CoV-2

O=C(O)[C@H]1O[C@@H](Oc2cc3oc(-c4ccccc4)cc(=O)c3c(O)c2O)[C@H](O)[C@@H](O)[C@@H]1O [Baicalin, baicalin]
IC50 (SARS-CoV-2; [3]): 5.96 µM
IC50 (SARS-CoV-2; [4]): 5.96 µM
activity against SARS-CoV (SARS-CoV): active
activity against MERS-CoV (MERS-CoV): active
activity against common cold coronavirus (common cold coronavirus): active
activity against Influenza A (Influenza A): active
activity against Influenza B (Influenza B): active

CC(C)=CCc1cc(C(=O)/C=C/c2ccc(O)cc2)c(O)cc1O [Bavachalcone B]
IC50 (SARS-CoV-2; [3]): 1.43 µM
IC50 (SARS-CoV-2; [4]): 1.43 µM
activity against SARS-CoV (SARS-CoV): active
activity against MERS-CoV (MERS-CoV): active
activity against common cold coronavirus (common cold coronavirus): active
activity against Influenza A (Influenza A): active
activity against Influenza B (Influenza B): active

COc1ccc2cc1Oc1ccc(cc1)C[C@H]1c3c(cc4c(c3Oc3cc5c(cc3OC)CCN(C)[C@@H]5C2)OCO4)CCN1C [Cepharanthine, (14S,27S)-22,33-dimethoxy-13,28-dimethyl-2,5,7,20-tetraoxa-13,28-diazaoctacyclo[25.6.2.2^16,19.1^3,10.1^21,25.0^4,8.0^31,35.0^14,39]nonatri-aconta-1(33),3(39),4(8),9,16(38),17,19(37),21,23,25(36),31,34-dodecaene]
IC50 (SARS-CoV-2; [3]): 0.51 µM
IC50 (SARS-CoV-2; [4]): 0.51 µM
activity against SARS-CoV (SARS-CoV): active
activity against MERS-CoV (MERS-CoV): active
activity against common cold coronavirus (common cold coronavirus): active
activity against Influenza A (Influenza A): active
activity against Influenza B (Influenza B): active
anti-inflammatory cytokines [1]: inducing anti-inflammatory cytokines such as IL-10
expression of cytokine modulators / anti-inflammatory cytokines [1]: activating expression of the anti-inflammatory cytokine IL-10
expression of pro-inflammatory cytokines [1]: inhibited expression of pro-inflammatory cytokines VEGF, IL-6, IL-8, GRO, MIP-1α, MIP-1β and MMP-9
expression of the anti-inflammatory cytokine IL-10 [1]: increasing expression of the anti-inflammatory cytokine IL-10
multiple pro-inflammatory cytokines [1]: suppressed multiple pro-inflammatory cytokines such as IL-1β, TNF-α, IL-6 IL-8, IL-12, MCP-1 and MIP-1α
pro-inflammatory cytokines [1]: selectively inhibited pro-inflammatory cytokine, such as VEGF, IL-6, IL-8, GRO, MIP-1α, MIP-1β and MMP-9
apoptosis by activation of caspase 3 [2]: selectively induces apoptosis
apoptosis by caspase 3 activation [2]: induced apoptosis

CN(C)CCCSc1ccccc1NC(=O)/C=C/c1ccccc1 [Cinanserin, cinanserin]
IC50 (SARS-CoV-2; [3]): 13.7 µM
IC50 (SARS-CoV-2; [4]): 13.7 µM
activity against SARS-CoV (SARS-CoV): active
activity against MERS-CoV (MERS-CoV): active
activity against common cold coronavirus (common cold coronavirus): active
activity against Influenza A (Influenza A): active
activity against Influenza B (Influenza B): active

COc1ccc2cc1Oc1ccc(cc1)C[C@H]1c3cc(c(OC)cc3CCN1C)Oc1c(O)c(OC)cc3c1[C@H](C2)N(C)CC3 [Fangchinoline, (1S,14S)-9,20,25-trimethoxy-15,30-dimethyl-7,23-dioxa-15,30-diazaheptacyclo[22.6.2.2^3,6.1^8,12.1^14,18.0^27,31.0^22,33]hexatriaconta-3(36),4, 6(35),8,10,12(34),18,20,22(33),24,26,31-dodecaen-21-ol]
IC50 (SARS-CoV-2; [3]): 2.05 µM
IC50 (SARS-CoV-2; [4]): 2.05 µM
activity against SARS-CoV (SARS-CoV): active
activity against MERS-CoV (MERS-CoV): active
activity against common cold coronavirus (common cold coronavirus): active
activity against Influenza A (Influenza A): active
activity against Influenza B (Influenza B): active
expression of pro-inflammatory cytokines [1]: inhibited expression of pro-inflammatory cytokines VEGF, IL-8, MIP-1β and MMP-9
pro-inflammatory cytokines [1]: selectively inhibited pro-inflammatory cytokines, such as VEGF, IL-8, GRO, MIP-1β and MMP-9
apoptosis by activation of caspase 3 [2]: selectively induces apoptosis
apoptosis by caspase 3 activation [2]: induced apoptosis

O=C(/C=C/c1ccc(O)c(O)c1)O[C@H](Cc1ccc(O)c(O)c1)C(=O)O [Rosmarinic acid]
IC50 (SARS-CoV-2; Severe acute respiratory syndrome coronavirus 2, Vero C1008, read-out: IC50 in an in vitro inhibition assay against SARS-CoV-2): 0.89 µM
IC50 (SARS-CoV-2; [3]): 0.89 µM
activity against SARS-CoV (SARS-CoV): active
activity against MERS-CoV (MERS-CoV): active
activity against common cold coronavirus (common cold coronavirus): active
activity against Influenza A (Influenza A): active
activity against Influenza B (Influenza B): active

COc1ccc2cc1Oc1ccc(cc1)C[C@H]1c3cc(c(OC)cc3CCN1C)Oc1c(OC)c(OC)cc3c1[C@H](C2)N(C)CC3 [Tetrandrine, (1S,14S)-9,20,21,25-tetramethoxy-15,30-dimethyl-7,23-dioxa-15,30-diazaheptacyclo[22.6.2.2^3,6.1^8,12.1^14,18.0^27,31.0^22,33]hexatriaconta-3(36),4,6(35),8,10,12(34),18,20,22(33),24,26,31-dodecaene]
activity against SARS-CoV (SARS-CoV): active
activity against MERS-CoV (MERS-CoV): active
activity against common cold coronavirus (common cold coronavirus): active
activity against Influenza A (Influenza A): active
activity against Influenza B (Influenza B): active
anti-inflammatory cytokines [1]: inducing anti-inflammatory cytokines, such as IL-10
expression of cytokine modulators / anti-inflammatory cytokines [1]: activating expression of the anti-inflammatory cytokine IL-10
expression of pro-inflammatory cytokines [1]: inhibited expression of pro-inflammatory cytokines VEGF, IL-6, IL-8, MIP-1α and MIP-1β
pro-inflammatory cytokines [1]: selectively inhibited pro-inflammatory cytokine, such as VEGF, IL-6, IL-8, MIP-1α and MIP-1β
apoptosis by activation of caspase 3 [2]: selectively induces apoptosis
apoptosis by caspase 3 activation [2]: induced apoptosis

O=c1cc(-c2ccccc2)oc2cc(O)c(O)c(O)c12 [baicalein, 5,6,7-trihydroxy-2-phenylchromen-4-one]
anti-inflammatory cytokines [1]: inducing anti-inflammatory cytokines such as IL-10
expression of cytokine modulators / anti-inflammatory cytokines [1]: activated expression of cytokine modulators IL-10 and IFN-γ
expression of pro-inflammatory cytokines [1]: inhibited expression of pro-inflammatory cytokines IL-1α, IL-8, GRO, MCP-1, MIP-1α, MIP-1β, MMP-9 and TNF-α
pro-inflammatory cytokines [1]: selectively inhibited pro-inflammatory cytokine, such as IL-1α, IL-8, GRO, MCP-1, MIP-1α, MIP-1β, MMP-9 and TNF-α
apoptosis by activation of caspase 3 [2]: selectively induces apoptosis
apoptosis by caspase 3 activation [2]: induced apoptosis

O=C(/C=C/c1ccccc1)Nc1ccccc1 [cinnamanilide, (E)-N,3-diphenylprop-2-enamide]
anti-inflammatory cytokines [1]: inducing anti-inflammatory cytokines such as IL-10
expression of cytokine modulators / anti-inflammatory cytokines [1]: activated expression of cytokine modulator IL-10
expression of pro-inflammatory cytokines [1]: inhibited expression of pro-inflammatory cytokines IL-1α, VEGF, IL-6, IL-8, IL-13, GM-CSF, MIP-1α, MIP-1β, MMP-9 and RANTES
pro-inflammatory cytokines [1]: selectively inhibited pro-inflammatory cytokine, such as IL-1α, VEGF, IL-6, IL-8, IL-13, GM-CSF, MIP-1α, MIP-1β, MMP-9 and RANTES

COc1ccc(-c2coc3cc(O)ccc3c2=O)cc1 [formononetin, 7-hydroxy-3-(4-methoxyphenyl)chromen-4-one]
anti-inflammatory cytokines [1]: inducing anti-inflammatory cytokines, such as IL-10 and IFN-γ
expression of cytokine modulators / anti-inflammatory cytokines [1]: activated expression of cytokine modulators IL-10 and IFN-γ
expression of pro-inflammatory cytokines [1]: inhibited expression of pro-inflammatory cytokines VEGF, IL-6, IL-8, GRO, MCP-1, MIP-1α, MIP-1β, MMP-9 and RANTES
pro-inflammatory cytokines [1]: selectively inhibited pro-inflammatory cytokine, such as VEGF, IL-6, IL-8, GRO, MCP-1, MIP-1α, MIP-1β, MMP-9 and RANTES
apoptosis by activation of caspase 3 [2]: selectively induces apoptosis
apoptosis by caspase 3 activation [2]: induced apoptosis

CC(C)=CCc1cc([C@@H]2CCc3ccc(O)cc3O2)c(CC=C(C)C)c(O)c1O [kazinol A, 4-[(2S)-7-hydroxy-3,4-dihydro-2H-chromen-2-yl]-3,6-bis(3-methylbut-2-enyl)benzene-1,2-diol]
anti-inflammatory cytokines [1]: inducing anti-inflammatory cytokines such as IL-10
expression of cytokine modulators / anti-inflammatory cytokines [1]: activated expression of cytokine modulator IL-10
expression of pro-inflammatory cytokines [1]: inhibited expression of pro-inflammatory cytokines IL-1α, IL-4, IL-8, MIP-1β and MMP-9
pro-inflammatory cytokines [1]: selectively inhibited pro-inflammatory cytokine, such as IL-1α, IL-4, IL-8, MIP-1β and MMP-9
apoptosis by activation of caspase 3 [2]: selectively induces apoptosis
apoptosis by caspase 3 activation [2]: induced apoptosis
